Source: patent US6020328A, “20-keto-11β-arylsteroids and their derivatives having agonist or antagonist hormonal properties” (Research Triangle Institute, priority 1998, dated 2000)

Legend:
rabbits [1] = details: in words; Cook et al., Human Reproduction 1994; cited from earlier work
progestin receptor (hPR) = assay: progestin receptor binding; details: cytosol from human T-47D breast cells; [3H]-R5020; read-out: Receptor Binding Affinity hPR IC50
Description: However, the receptors were of human origin and a different radioligand was used. Thus, for progestin receptor binding the receptor was obtained in cytosol from human T-47D breast cells and [^3 H]-R5020 was used as the radioligand. Data are expressed as IC50 values, i.e., the concentration of compound that inhibits the radioligand binding by 50%.

rabbits [2] = assay: McGinty test (agonist, test compound alone); format: in vivo, rabbit
Protocol: (§1) Progestational activity and antiprogestational activity were determined in rabbits by means of the McGinty test (test compound alone, procedure of McGinty et al., Endocrinology, 24:829-832 (1939)) or anti-McGinty test (test compound plus progesterone, procedure of Tamara et al., Jpn. J. Fertil. Steril. 24:48-81 (1979)). Results were scored according to McPhail (McPhail, J. Physiol., 83:146 (1934)).

rabbits [3] = assay: anti-McGinty test (antagonist, test compound plus progesterone); format: in vivo, rabbit; details: in words
Protocol: as §1

androgen receptor = target: T1, androgen receptor (Rattus norvegicus, UniProt P15207); assay: androgen receptor binding
T1 construct: using the cytosolic receptor from rat central prostate; from tissue
T1 sequence (P15207 1-902): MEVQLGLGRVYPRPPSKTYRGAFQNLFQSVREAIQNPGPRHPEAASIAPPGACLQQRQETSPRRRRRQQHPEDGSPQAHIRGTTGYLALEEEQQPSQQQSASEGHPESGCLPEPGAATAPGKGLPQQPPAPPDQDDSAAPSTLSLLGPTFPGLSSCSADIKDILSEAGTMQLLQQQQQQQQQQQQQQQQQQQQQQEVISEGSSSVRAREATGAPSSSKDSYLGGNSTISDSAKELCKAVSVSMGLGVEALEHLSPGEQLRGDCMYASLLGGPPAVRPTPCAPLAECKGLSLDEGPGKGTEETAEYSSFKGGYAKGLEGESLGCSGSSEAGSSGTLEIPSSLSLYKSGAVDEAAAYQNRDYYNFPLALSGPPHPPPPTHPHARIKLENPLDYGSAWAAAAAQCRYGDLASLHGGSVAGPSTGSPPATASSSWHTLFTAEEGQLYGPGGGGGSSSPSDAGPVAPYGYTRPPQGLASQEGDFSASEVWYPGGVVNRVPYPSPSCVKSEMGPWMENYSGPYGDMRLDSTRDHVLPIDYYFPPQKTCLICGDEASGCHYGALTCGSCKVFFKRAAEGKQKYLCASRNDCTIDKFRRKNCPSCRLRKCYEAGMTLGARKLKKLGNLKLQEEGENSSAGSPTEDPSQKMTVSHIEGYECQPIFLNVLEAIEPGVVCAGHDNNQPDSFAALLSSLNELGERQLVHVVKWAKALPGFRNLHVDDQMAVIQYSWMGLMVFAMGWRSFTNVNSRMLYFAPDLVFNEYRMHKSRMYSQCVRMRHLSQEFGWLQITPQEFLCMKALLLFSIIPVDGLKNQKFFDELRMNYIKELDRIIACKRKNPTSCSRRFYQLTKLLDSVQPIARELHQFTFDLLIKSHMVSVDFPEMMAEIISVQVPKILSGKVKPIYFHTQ

IC50 (progestin receptor (hPR))	IC50 (androgen receptor; cytosolic receptor from rat central prostate, [3H]-5α-dihydrotestosterone)	androgen receptor affinity (androgen receptor; in words)	Structure (SMILES)	antiprogestational activity (rabbits [1])	McPhail Index, McGinty Assay (Agonist) (rabbits [2]; dose 0.3 micrograms)	McPhail Index, McGinty Assay (Agonist) (rabbits [2]; dose 3 micrograms)	McPhail Index, McGinty Assay (Agonist) (rabbits [2]; dose 30 micrograms)	progestational activity, McGinty test (rabbits [2]; in words)	antiprogestational activity, anti-McGinty test (rabbits [3])
			CC(=O)O[C@]1(C(C)=O)CC[C@H]2[C@@H]3CCC4=CC(=O)CCC4=C3[C@@H](c3ccc(N(C)C)cc3)C[C@@]21C [17α-acetoxy-11β-(4-(N,N-dimethylamino)phenyl)-19-norpregna-4,9-diene-3,20-dione]	potent antiprogestational activity					
11.9 nM	90 nM	very low affinity	CN(C)c1ccc([C@H]2C[C@@]3(C)[C@@H](CC[C@@]34OC(=O)CCC4=O)[C@@H]3CCC4=CC(=O)CCC4=C32)cc1 [II 4-Me2 N H O H -- H H H, 11β-[4-(N,N-dimethylamino)phenyl]-3,20-dioxo-17α-hydroxy-19,21-dinorchola-4,9-dien-24-oic acid δ-lactone]		0 +/- 0	0 +/- 0	0	no evidence of progestational activity	potent antiprogestational activity
